What was measured:
Assay in all cases: relative viability (nuclei count vs DMSO), 5 days (fraction); higher = more cells survive
TPCA-1 + Olaparib = compound: C1=CC(=CC=C1C2=CC(=C(S2)NC(=O)N)C(=O)N)F [TPCA-1] + O=C(c1cc(Cc2n[nH]c(=O)c3ccccc23)ccc1F)N1CCN(C(=O)C2CC2)CC1 [Olaparib] (partner 8 µM)
Method in brief: (§1)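 Relative viability divides the nuclei count in treated wells by that in vehicle wells. Lung cancer cell lines were seeded in 1536-well plates, dosed by pin tool the next day, and fixed and stained after 5 days in one step with final 0.05% Triton X-100, 1% formaldehyde and 1 ug/ml Hoechst. Dosing was a single drug or a fixed anchor-drug dose plus five library-drug doses (not always all listed) in √10 steps, and values are medians of duplicate plates imaged at 4×.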

[1] = compound: C1/C(=C\C2=CC=CS2)/C(=O)/C(=C/C3=CC=CS3)/C1 + CS(=O)(=O)N1CCN(Cc2cc3nc(-c4cccc5[nH]ncc45)nc(N4CCOCC4)c3s2)CC1 [Pictilisib] (partner 1 µM)
Method in brief: as §1

[2] = compound: C[C@]12O[C@H](C[C@]1(O)CO)n1c3ccccc3c3c4c(c5c6ccccc6n2c5c31)CNC4=O [Lestaurtinib] + C[C@@H](Oc1cc(-c2cnn(C3CCNCC3)c2)cnc1N)c1c(Cl)ccc(F)c1Cl [Crizotinib] (partner 1 µM)
Method in brief: as §1

TPCA-1 + Phenformin = compound: C1=CC(=CC=C1C2=CC(=C(S2)NC(=O)N)C(=O)N)F [TPCA-1] + N=C(N)NC(=N)NCCc1ccccc1 [Phenformin] (partner 250 µM)
Method in brief: as §1

Cell Line	relative viability (TPCA-1 + Olaparib; first compound 0.04 µM)	relative viability (TPCA-1 + Olaparib; first compound 0.1265 µM)	relative viability (TPCA-1 + Olaparib; first compound 0.4 µM)	relative viability (TPCA-1 + Olaparib; first compound 1.265 µM)	relative viability (TPCA-1 + Olaparib; first compound 4 µM)	relative viability ([1]; first compound 0.2 µM)	relative viability ([1]; first compound 0.6325 µM)	relative viability ([1]; first compound 2 µM)	relative viability ([1]; first compound 6.325 µM)	relative viability ([1]; first compound 20 µM)	relative viability ([2]; first compound 0.005 µM)	relative viability ([2]; first compound 0.01581 µM)	relative viability ([2]; first compound 0.05 µM)	relative viability ([2]; first compound 0.1581 µM)	relative viability ([2]; first compound 0.5 µM)	relative viability (TPCA-1 + Phenformin; first compound 0.04 µM)	relative viability (TPCA-1 + Phenformin; first compound 0.1265 µM)	relative viability (TPCA-1 + Phenformin; first compound 0.4 µM)	relative viability (TPCA-1 + Phenformin; first compound 1.265 µM)	relative viability (TPCA-1 + Phenformin; first compound 4 µM)
NCI-H596	0.722	0.674	0.671	0.828	0.479	0.412	0.419	0.378	0.368	0.391	0.851	1.05	0.805	1.02	0.923	0.857	0.678	0.764	0.746	0.658
NCI-H647	0.763	0.437	0.66	0.525	0.358	0.439	0.329	0.563	0.382	0.379	0.93	1.12	0.624	0.225	0.141	0.557	0.484	0.614	0.38	0.151
NCI-H650	0.4	0.323	0.408	0.385	0.354	0.998	0.801	0.834	0.821	0.938	0.744	0.764	0.509	0.414	0.226	0.493	0.436	0.466	0.311	0.293
NCI-H661	0.751	0.748	0.77	0.721	0.758	0.398	0.524	0.525	0.373	0.398	1.01	0.84	0.97	0.927	0.676	0.281	0.272	0.269	0.306	0.253
NCI-H727	0.86	0.69	0.666	0.57	0.534	0.328	0.419	0.609	0.21	0.455	1.26	0.911	0.718	0.613	0.323	0.673	0.417	0.488	0.389	0.479
NCI-H838	0.867	0.718	0.826	0.557	0.406	0.456	0.511	0.416	0.413	0.436	0.78	0.803	0.71	0.465	0.158	0.612	0.516	0.672	0.367	0.288
NCI-H1355	0.8	0.633	0.796	0.694	0.396	0.519	0.401	0.411	0.391	0.474	1.29	1.09	1.01	0.86	0.549	0.515	0.415	0.47	0.393	0.305
NCI-H1437	0.665	0.637	0.611	0.591	0.618	0.437	0.402	0.406	0.404	0.36	0.863	0.897	0.906	0.887	0.674	0.336	0.297	0.277	0.297	0.299
NCI-H1650	0.893	0.826	0.758	0.822	0.863	0.618	0.584	0.672	0.567	0.598	0.901	1.13	0.841	1.29	0.308	0.452	–	0.487	0.469	0.386
NCI-H1651	0.192	0.177	0.185	0.171	0.134	0.527	0.596	0.646	–	0.516	0.897	0.997	0.837	0.858	0.551	0.361	0.295	0.368	0.327	0.262
NCI-H1666	0.767	0.673	0.71	0.757	0.768	0.587	0.281	0.408	0.273	0.309	1.04	1.38	1.39	0.96	0.409	0.547	0.569	0.533	0.529	0.581
NCI-H1734	0.648	0.559	0.692	0.561	0.463	0.466	0.447	0.487	0.44	0.501	0.741	0.649	0.538	0.424	0.205	0.42	0.363	0.42	0.391	0.287
NCI-H1755	0.778	0.912	0.877	0.853	0.672	0.475	0.436	0.435	0.353	0.386	0.865	0.645	0.724	0.438	0.268	0.665	0.553	0.6	0.503	0.427
NCI-H1792	0.432	0.281	0.382	0.352	0.202	0.257	0.314	0.298	–	0.247	0.901	1.18	0.49	0.799	0.476	0.326	0.246	0.322	0.217	0.158
NCI-H1915	0.28	0.266	0.26	0.274	0.219	0.953	0.896	0.981	0.839	0.788	0.914	1.1	0.816	0.848	0.357	0.403	0.362	0.385	0.321	0.289
NCI-H1944	0.482	0.424	0.436	0.425	0.336	0.35	0.333	0.357	0.162	0.341	1.13	1.28	0.745	0.695	0.362	0.238	0.202	0.217	0.176	0.189

Cell Line	relative viability (TPCA-1 + Olaparib; first compound 0.04 µM)	relative viability (TPCA-1 + Olaparib; first compound 0.1265 µM)	relative viability (TPCA-1 + Olaparib; first compound 0.4 µM)	relative viability (TPCA-1 + Olaparib; first compound 1.265 µM)	relative viability (TPCA-1 + Olaparib; first compound 4 µM)	relative viability ([1]; first compound 0.2 µM)	relative viability ([1]; first compound 0.6325 µM)	relative viability ([1]; first compound 2 µM)	relative viability ([1]; first compound 6.325 µM)	relative viability ([1]; first compound 20 µM)	relative viability ([2]; first compound 0.005 µM)	relative viability ([2]; first compound 0.01581 µM)	relative viability ([2]; first compound 0.05 µM)	relative viability ([2]; first compound 0.1581 µM)	relative viability ([2]; first compound 0.5 µM)	relative viability (TPCA-1 + Phenformin; first compound 0.04 µM)	relative viability (TPCA-1 + Phenformin; first compound 0.1265 µM)	relative viability (TPCA-1 + Phenformin; first compound 0.4 µM)	relative viability (TPCA-1 + Phenformin; first compound 1.265 µM)	relative viability (TPCA-1 + Phenformin; first compound 4 µM)
NCI-H1975	0.843	0.72	0.806	0.735	0.6	0.314	0.265	0.328	0.26	0.265	0.943	0.988	0.707	0.867	0.586	0.445	0.392	0.435	0.405	0.312
NCI-H1993	1.23	1.03	0.958	1.07	0.99	0.877	0.793	0.851	0.684	0.79	0.936	0.971	0.819	0.635	0.548	0.425	0.536	0.55	0.421	0.485
NCI-H2009	0.697	0.733	0.626	0.753	0.817	0.911	0.959	0.833	0.691	0.846	1.02	1.09	1	0.637	0.454	0.542	0.486	0.512	0.429	0.44
NCI-H2023	0.633	0.445	0.581	0.516	0.411	0.282	0.254	0.241	0.214	0.23	0.635	0.619	0.723	0.654	0.113	0.488	0.423	0.476	0.359	0.269
NCI-H2085	–	0.74	0.738	0.839	0.683	0.449	0.487	0.534	0.405	0.432	0.904	0.856	0.748	0.884	0.692	0.837	0.616	0.693	0.555	0.389
NCI-H2087	0.711	0.588	0.541	0.546	0.364	0.78	0.959	0.986	0.552	0.822	1.07	0.789	1.04	0.746	0.253	0.475	0.417	0.417	0.351	0.154
NCI-H2126	0.951	0.924	0.911	0.875	0.88	0.511	0.477	0.505	0.485	0.488	1.06	1.1	0.835	0.973	0.682	0.561	0.499	0.53	0.537	0.44
NCI-H2170	0.668	0.568	0.65	0.508	0.439	0.334	0.341	0.31	0.278	0.313	1.05	1.06	0.68	0.924	0.292	0.478	0.401	0.424	0.402	0.362
NCI-H2228	0.731	0.624	0.789	0.56	0.432	0.337	0.362	0.479	0.295	0.287	0.512	0.442	0.415	0.21	0.255	0.396	0.292	0.412	0.285	0.272
NCI-H2347	0.565	0.54	0.607	0.578	0.545	0.652	0.63	0.928	0.889	0.446	0.715	0.854	0.71	0.585	0.545	0.652	0.331	0.451	0.262	0.264
NCI-H2405	0.908	0.833	0.951	0.717	0.691	0.491	0.386	0.572	0.452	0.416	0.852	0.87	0.767	0.698	0.578	0.459	0.37	0.471	0.166	0.38
NCI-H3122	0.627	0.605	0.594	0.588	0.439	0.681	0.579	0.718	0.466	0.642	0.321	0.286	0.322	0.33	0.273	0.383	0.401	0.409	0.374	0.404
PC-3 [JPC-3]	1.19	1.17	1.11	1.05	1	0.65	0.765	0.798	0.629	0.719	0.975	1.15	1.01	1.15	0.693	0.461	0.461	0.484	0.486	0.468
PC-14	0.295	0.324	0.308	0.327	0.341	0.815	0.654	0.69	0.755	0.737	0.883	0.958	0.786	0.595	0.688	0.575	0.492	0.717	0.508	0.568
RERF-LC-KJ	0.952	0.857	0.884	0.911	0.78	0.566	0.583	0.583	0.42	0.494	0.856	0.969	0.674	0.799	0.6	0.425	0.393	0.424	0.408	0.37
SK-LU-1	0.544	0.37	0.428	0.418	0.315	0.583	0.709	0.649	0.56	0.665	0.663	0.915	0.433	0.516	0.312	0.719	0.461	0.662	0.44	0.238

Reference: the supplement of paper PMC10307832
